The source of these data is PubChem BioAssay AID2305 (GlaxoSmithKline (GSK), 2010).

Molecules are shown by their SMILES.

The IC50 is the concentration at which inhibition is half-maximal. A lower IC50 goes with greater potency in that assay.

The subject of this test is P. falciparum 3D7 growth, pLDH absorbance. Description: blood-stage malaria parasite growth potency – strain 3D7, dose response (AID 2305).
In turn, `COc1ccc(O)c(C(=O)c2cnc3c(c2)c(-c2ccc(F)cc2)c(C#N)c(=O)n3C)c1` registered a concentration for half-maximal inhibition (IC50) of 0.79 µM.

For the compound `O=[N+]([O-])c1ccc(NC(=NCCOc2ccccc2)Nc2ccccc2Br)c(O)c1`, the IC50 stood at 1.05 µM.

`N#Cc1ccc2c(c1)CCN(CCC1CCC(Nc3ncnc4ccccc34)CC1)C2` (stereo unspecified): the IC50 came to 0.63 µM.

`COc1ccc(CCOc2c(C)nc(N)nc2N)cc1OC` registered a half-maximal inhibitory concentration (IC50) of 0.07 µM.

For `Clc1ccc2c(Cl)c(CNCCCNc3nc4ccccc4[nH]3)[nH]c2c1`, the IC50 was 0.22 µM.

The compound `NC(=NCCCCC1CCCCC1)c1cccc(C(N)=NCCCCC2CCCCC2)n1` gave an IC50 of 0.39 µM.

In turn, `CCCC(CNCc1cccc(OC(F)(F)C(F)F)c1)CNc1cc(=O)c2ccccc2[nH]1` (stereo unspecified) showed an IC50 of 0.59 µM.

The compound `Cc1oc(-c2cccc(Oc3ccccc3)c2)nc1CN(Cc1cnn(C)c1)C(C)C` returned a half-maximal inhibitory concentration (IC50) of 1.09 µM.

`CC(=O)Nc1ccc(OCCCCN(Cc2ccccc2OC(F)(F)F)c2ccc(C(F)(F)F)c(C#N)c2)c(Cl)c1` registered an IC50 of 0.53 µM.

With `CN1CCN(c2ccnc3ccc(NC(=O)Nc4ccc(-c5ccncc5)c(C(F)(F)F)c4)cc23)CC1`, the half-inhibitory concentration (IC50) is 0.82 µM.

For the compound `O=C(NCC1CCC(C(=O)NC2CCCc3ccccc32)CC1)c1ccc(O)c(-c2ccc(Cl)c(Cl)c2)c1` (stereo unspecified), the IC50 is 1.02 µM.

For the compound `O=C(/C=C/c1ccc(Cl)c(Cl)c1)NCCCCCN1CCC(NC(=S)Nc2ccc(Cl)cc2Cl)CC1`, the half-inhibitory concentration (IC50) came to 0.74 µM.

`CCCCCCCN(CCCCCCC)CCCC(=O)Nc1ccnc2ccc(OC)cc12` displayed an IC50 of 0.15 µM.

For `c1ccc(-c2cc3cccc(-c4nc5ccncc5[nH]4)c3o2)cc1`, the half-inhibitory concentration (IC50) worked out at 0.11 µM.

`Cc1cc(N[C@@H](Cc2ccccc2)C(=O)NCc2cccs2)nc(NCCOc2ccccc2)n1` gave an IC50 of 1.48 µM.

Take `COc1ccc2ccc(OC)c(CNCCCCCCNCc3c(OC)ccc4ccc(OC)cc34)c2c1`: the 50% inhibitory concentration (IC50) was determined as 0.7 µM.

Compound `CCCCCc1cc(O)c2c(c1)OC(C)(C)C=C2C1=CCN(Cc2ccsc2)CC1` had an IC50 of 0.96 µM.

In turn, `CCCCCOc1ccc(N2C(N)=NC(N)=NC2(C)C)cc1` had a concentration for half-maximal inhibition (IC50) of 0.2 µM.

`CC(C)CC(=O)N1CCNC[C@@H]1C(=O)NCc1ccc(Cl)c(Cl)c1` had an IC50 of 0.95 µM.

`COc1cc(NC(=O)/C=C/c2ccccc2OC(F)(F)F)cc(OCCN2CCC(O)(c3ccccc3)CC2)c1` had an IC50 of 0.29 µM.

As for `CNC(=O)c1ccccc1Nc1nc(Nc2ccc(C(=O)O)cc2)ncc1Cl`, the concentration for half-maximal inhibition (IC50) was 0.95 µM.

`NC1(C(=O)O)Cc2ccc(Cl)cc2C1` (stereo unspecified) yielded an IC50 of 0.73 µM.

As to `CC(C)NCc1ccc(OCc2cccc(COc3ccc(CNC(C)C)cc3I)c2)c(I)c1`, the IC50 came out at 0.09 µM.

The compound `COc1ccc(CNCc2ccccc2)cc1-c1ccc(S(=O)(=O)NCCN2CCCC2)cc1` had an IC50 of 0.82 µM.

`NC1=NC(c2ccccc2)(c2ccccc2)C(=O)N1CCCCc1ccccc1` showed a concentration for half-maximal inhibition (IC50) of 0.76 µM.

The compound `CN(C)C(CNC(=O)c1cc(-c2ccncc2)c(-c2ccc(NC(=O)Nc3ccccc3)cc2)o1)c1ccccc1` (stereo unspecified) came in with an IC50 of 0.6 µM.

With `O=C(NCCN1CCCC1)N1CCCN(c2ncnc3cc(-c4ccc(F)cc4)sc23)CC1`, the half-inhibitory concentration (IC50) is 0.9 µM.

The compound `O=C(/C=C/c1ccc(Cl)c(Cl)c1)NCCCCCN1C2CCC1CC(c1c[nH]c3ccccc13)C2` (stereo unspecified) returned an IC50 of 0.84 µM.

In the case of `OCC1CCN(Cc2cccc(-c3ccc(-c4nc5ccc(C(F)(F)F)cc5[nH]4)s3)c2)CC1`, the IC50 amounted to 0.59 µM.

Compound `O=c1cc(NCCCNCc2cc3ccccc3s2)[nH]c2ccccc12` had a concentration for half-maximal inhibition (IC50) of 1.27 µM.

Compound `CCOc1ccccc1C(=O)N1CCc2cc3nccc(N4CCN5CCC[C@H]5C4)c3cc21` showed an IC50 of 0.75 µM.

`CN1CCN(c2ccnc3ccc(NC(=O)Cc4cccc(Cl)c4Cl)cc23)CC1` showed an IC50 of 0.79 µM.

In turn, `CCC(C)CN1CCCN(c2ccc(NC(=O)c3cccs3)cc2)CC1` (stereo unspecified) registered an IC50 of 0.8 µM.

`O=C(Nc1cccc(-c2cccc(-c3ccc(F)cc3)n2)c1)c1ccc([N+](=O)[O-])o1` gave an IC50 of 0.36 µM.

On to `Cc1cc(-c2nc3ccc(C(=N)N)cc3[nH]2)c(C)cc1-c1nc2ccc(C(=N)N)cc2[nH]1`, for which the IC50 came to 0.4 µM.

For `CCCc1cc(Cc2cnc(N)nc2N)cc(CCC)c1OCCCCC(=O)OCC`, the half-inhibitory concentration (IC50) was 0.05 µM.

As to `COc1cc(CN=C(Nc2ccc(-c3ccccc3)cc2)Nc2ccc(C#N)cc2O)cc(OC)c1`, the concentration for half-maximal inhibition (IC50) amounted to 0.72 µM.

On to `CCCCc1ccc(C(=O)NC2CCN(C[C@H](O)c3ccnc4ccc(OC)cc34)CC2)cc1`, for which the IC50 was determined as 0.73 µM.

On to `CCCCNC(=O)[C@H](CC1CCCCC1)NC(=O)c1ccc(O)c(-c2ccc(OC)cc2)c1`, for which the IC50 was 0.92 µM.

`Cc1[nH]c(C)c([N+](=O)[O-])c(=O)c1-c1ccc(Oc2ccccc2)cc1` came in with an IC50 of 0.27 µM.

In the case of `COc1ccc2nccc([C@@H](O)CN3CCC(NC(=O)/C=C/c4ccc5cc(C)[nH]c5c4)CC3)c2c1`, the IC50 worked out at 0.73 µM.

In the case of `COc1ccc(CC(C)NCC(O)c2cccc(C(F)(F)F)c2)cc1F` (stereo unspecified), the IC50 amounted to 0.83 µM.

The compound `O=[N+]([O-])c1ccc(-n2nc(-c3cccnc3)n(Cc3ccco3)c2=S)c(Cl)c1` came in with an IC50 of 0.2 µM.

In turn, `CCOc1cc(C=NNc2nc(C)cc(-n3nc(C)cc3C)n2)ccc1O` registered a half-inhibitory concentration (IC50) of 1.08 µM.

Compound `c1ccc(CCNCc2cccc(-c3ccccc3CNCc3ccc4c(c3)OCO4)c2)nc1` showed an IC50 of 0.97 µM.

`Nc1nc(N)c2c(Sc3ccc(F)cc3)cccc2n1` yielded an IC50 of 1.07 µM.

`Cc1ccc(Cc2c(C)nc3nc(N)nc(N)c3c2C)cc1` returned an IC50 of 0.24 µM.

Compound `Cc1cccc(NC(=O)Nc2cccc(-c3ccc(-c4nc5ccc(C(F)(F)F)cc5[nH]4)cc3)c2)c1` gave a 50% inhibitory concentration (IC50) of 0.9 µM.

For `CC(=O)NCCNc1nccc(N2CCc3ncnc(Nc4ccc(OCc5cccc(F)c5)c(Cl)c4)c3C2)n1`, the IC50 turned out to be 0.13 µM.

Turning to `CS(=O)(=O)NCCCNCc1cccc(-c2ccc(-c3nc4ccccc4[nH]3)s2)c1`, the 50% inhibitory concentration (IC50) was 1.08 µM.

The compound `Cc1ccc(NC(=O)c2cc(S(=O)(=O)NC(C)(C)C)ccc2C)nc1` yielded a half-maximal inhibitory concentration (IC50) of 0.76 µM.

In turn, `Clc1ccc(CNc2nc(NCCc3cnc[nH]3)nc(N3CCCC4CCCCC43)n2)cc1` (stereo unspecified) had an IC50 of 0.59 µM.

For the compound `O=C(Nc1cccc(-c2ccc(-c3nc4ccc(F)cc4[nH]3)cc2)c1)Nc1ccc(Cl)c(Cl)c1`, the 50% inhibitory concentration (IC50) stood at 0.14 µM.

Consider `Cc1[nH]c(-c2ccc(F)cc2)cc1C(=O)NC1CCN(Cc2ccccc2)CC1`, for which the IC50 worked out at 1.13 µM.

On to `COC(=O)[C@@H](NC(=O)[C@H](CC(C)C)Nc1ccc(C#N)c2ccccc12)c1ccc(O)cc1`, for which the half-maximal inhibitory concentration (IC50) was determined as 0.79 µM.

For the compound `COCC(C)n1c(SCC(=O)Nc2cc(C(F)(F)F)ccc2Cl)nc2ccccc2c1=O` (stereo unspecified), the IC50 worked out at 0.13 µM.

As to `CC[C@H]1CN2CC[C@H]1C[C@H]2[C@H](O)c1cc(-c2cccc(Cl)c2)nc2ccc(OC)cc12`, the IC50 worked out at 0.17 µM.

For the compound `O=C(Nc1cccc(C(F)(F)F)c1)c1cccc(S(=O)(=O)NCC2CCN(CC3CCCCC3)CC2)c1`, the half-inhibitory concentration (IC50) stood at 1.47 µM.

The compound `CCOC(=O)C(C)(C)Oc1ccc(C(=C2CC(C)(C)CC(C)(C)C2)c2ccc(O)cc2)cc1` had a concentration for half-maximal inhibition (IC50) of 1.13 µM.

Turning to `Cc1ccc2[nH]c3c(NCCCN4CCOCC4)ncnc3c2c1`, the IC50 turned out to be 0.94 µM.

In turn, `CC(C)N(Cc1ccccc1)C(=O)CN1C(=O)COc2ccc(S(=O)(=O)N3CCCCCC3)cc21` registered an IC50 of 0.25 µM.

`O=C(Cn1c(CCc2cccc(F)c2F)cc(=O)c2ccccc21)N(CCN1CCCCC1)Cc1ccc(-c2ccc(C(F)(F)F)cc2)cc1` displayed a 50% inhibitory concentration (IC50) of 0.76 µM.

Take `Cc1[nH]c(C)c(-c2ccc(-c3ccccc3C(F)(F)F)nc2)c(=O)c1Br`: the half-inhibitory concentration (IC50) came out at 0.17 µM.

As to `Cc1ccc(C(=O)Nc2cc(C(F)(F)F)cc(C(F)(F)F)c2)cc1[N+](=O)[O-]`, the concentration for half-maximal inhibition (IC50) was 0.93 µM.

The compound `Clc1ccc(Sc2cncnc2N2CCOCC2)cc1` displayed an IC50 of 0.04 µM.

Compound `COc1ccc(CCNCCCCCCNCCc2cccc([N+](=O)[O-])c2)cc1OC` registered a concentration for half-maximal inhibition (IC50) of 1 µM.

Turning to `Cc1ccc(CNC(=O)[C@H](CCCN)Nc2nc(NCC3CCCCC3)ncc2C)cc1`, the half-maximal inhibitory concentration (IC50) was determined as 0.99 µM.

In turn, `CCn1cnc2c(Nc3cccc([N+](=O)[O-])c3)nc(N3CCC(N4CCCCC4)CC3)nc21` gave an IC50 of 0.95 µM.

In turn, `CN(C)CCC1CCN(CCS(=O)(=O)c2cccc(Nc3ncc(-c4cccc(F)c4)cn3)c2)CC1` showed an IC50 of 1.06 µM.

As to `CN(C)Cc1cccc(-c2ccc(Nc3nccc(NCC(O)c4ccccc4)n3)cc2)c1` (stereo unspecified), the IC50 worked out at 0.14 µM.

`Cc1cc(C(=O)CN2C(=O)NC3(CCCc4ccccc43)C2=O)c(C)n1Cc1ccco1` (stereo unspecified) registered an IC50 of 1.1 µM.

Take `COc1ccc2nccc([C@@H](O)CN3CCC(NC(=O)C(c4cc5ccccc5o4)N4CCN(c5ccccc5OC)CC4)CC3)c2c1` (stereo partly specified): the IC50 came out at 0.31 µM.

For `CS(=O)(=O)c1ccc(CNCc2ccc(-c3cccc(-c4nc5ccc(C(F)(F)F)cc5[nH]4)c3)cc2)cc1`, the half-maximal inhibitory concentration (IC50) worked out at 0.14 µM.

Compound `COc1cc(/C=C/C(=O)NC2CCC(N3CCC(c4ccccc4C)CC3)CC2)cc(OC)c1` (stereo unspecified) gave an IC50 of 0.98 µM.

`O=C1CCCN1CCCNCc1ccc(-c2cccc(-c3nc4ccc(C(F)(F)F)cc4[nH]3)c2)cc1` gave a concentration for half-maximal inhibition (IC50) of 0.19 µM.

`COc1ccc(-c2ccc(CNC3Cc4ccccc4C3)cc2)cc1S(=O)(=O)NCCN1CCCC1` showed a half-maximal inhibitory concentration (IC50) of 0.8 µM.

Compound `N#Cc1cncc(-c2nc3c(N4CCC(Cc5ccccc5)CC4)cccc3n2C2CCNC2)c1` (stereo unspecified) had an IC50 of 0.99 µM.

Compound `Cc1ccc(-n2nc3ccc(NC(=O)c4ccc([N+](=O)[O-])o4)cc3n2)cc1C` showed an IC50 of 0.4 µM.

`COC(=O)c1ccc(CC(C)NCC(O)c2ccc3ccc4ccccc4c3c2)cc1` (stereo unspecified) showed an IC50 of 0.22 µM.

`CC(=O)Nc1ccc(CN(Cc2cccc(OC(C)(C)C)c2)Cc2ccc3c(c2)OCCO3)cc1`: the half-maximal inhibitory concentration (IC50) was 0.14 µM.

Take `O=[N+]([O-])c1cccc(CNCC2CCC(CNCc3cccc([N+](=O)[O-])c3)CC2)c1` (stereo unspecified): the IC50 is 0.14 µM.

For `CCCCCCCN1CC[C@H](NC(=O)Nc2ccnc3ccc(OC)cc23)[C@H](C(=O)OCC)C1`, the IC50 is 0.43 µM.

Turning to `N#CC(c1cccc(Cl)c1)c1ccc2c(C(F)(F)F)cc(C(F)(F)F)nc2n1` (stereo unspecified), the 50% inhibitory concentration (IC50) is 0.73 µM.

For the compound `CN1CCC(N2CCN(Cc3ccc(-c4cccc(-c5nc6ccccc6[nH]5)c4)cc3)CC2)CC1`, the IC50 worked out at 0.14 µM.

The compound `Cc1ccc(C(C(=O)Nc2ccc(N3CCNCC3)c(Cl)c2)c2ccccc2)cc1` (stereo unspecified) showed an IC50 of 0.84 µM.

Turning to `CCC(C)NC(=O)CN1CN(c2ccccc2)C2(CCN(C(=O)c3ccc(-c4ccccc4)cc3)CC2)C1=O` (stereo unspecified), the IC50 worked out at 0.13 µM.
